Values of other authors in article PMC2709231 (European Journal of Nuclear Medicine and Molecular Imaging, 2009).

Conditions: human, in vivo

## ^90Y-DTPA-(D)Glu^1-(Glu)5-Ala-Tyr-Gly-Trp-Met-Asp-Phe-NH2 [^90Y-DTPA-DGlu^1-minigastrin]
  Side effects of radionuclide therapy: serious side effects, including renal insufficiency and bone marrow toxicity
